{"source": "patent US10801024B2", "about": "“Inhibition of lncRNA HOTAIR and related materials and methods” (Indiana University Research and Technology Corporation, priority 2015, dated 2020)", "key": {"[1]": {"test": "Mouse xenograft: body weight, spleen and liver weight, histology", "format": "in vivo", "description": "In another exemplary method, to investigate anti-tumor properties of pHLIP-PNA3 in vivo, BALB/C mice were subcutaneously injected with CDDP-resistant A2780_CR5 (2×10^6 cells). Once tumors reached ˜200 mm^3, mice were injected intravenously (two times per week for 2 weeks) with pHLIP-PNA3 (1 mg/kg), pHLIP-control PNA (1 mg/kg), and/or CDDP (2 mg/kg i.p.) at indicated times (FIG. 14A). Tumor volume was reduced (p=0.02) in mice co-administered pHLIP-PNA3+CDDP compared to pHLIP-control PNA+CDDP (FIG. 13A). Tumor volume in mice treated with either pHLIP-PNA alone was similar to vehicle-treated mice (FIG. 14A). Importantly, survival of mice treated with pHLIP-PNA3 vs. mock was increased 1.6-fold (39 vs. 25 days; FIG. 13B), and body weight was similar among groups (FIG. 14B), showing that PNAs are non-toxic in vivo. […]\nAll animal studies adhered to ethical regulations and protocols. To assess tumorigenicity of cells, cultured A2780_CR5 cells were washed with PBS trypsinized and counted with trypan blue, re-suspended in 1:1 PBS/matrigel (BD Bioscience) and 2×10^6 cells were injected subcutaneously into the left flank of 3- to 4-week-old female nude athymic mice (BALB/c-nu/nu; Harlan, Indianapolis, Ind.). […] Tumor length (l) and width (w) were measured biweekly using digital calipers and tumor volume (v) was calculated as v=½×1×w2. […]"}, "A2780_CR5 [2]": {"system": "A2780_CR5", "test": "Mouse xenograft: tumor volume and survival", "format": "in vivo", "conditions": "CDDP-treated mice", "experimental": "All animal studies adhered to ethical regulations and protocols. To assess tumorigenicity of cells, cultured A2780_CR5 cells were washed with PBS trypsinized and counted with trypan blue, re-suspended in 1:1 PBS/matrigel (BD Bioscience) and 2×10^6 cells were injected subcutaneously into the left flank of 3- to 4-week-old female nude athymic mice (BALB/c-nu/nu; Harlan, Indianapolis, Ind.). Engrafted mice (n=6 per group) were inspected three times per week for tumor appearance by visual observation and palpation. Once tumors were ˜200 mm^3, mice were treated with either CDDP (2 mg kg−1) or PNA (1 mg kg−1) or both CDDP and PNA twice per week for two weeks. Blood samples were collected by puncturing the left lateral saphenous vein with a needle and collected using a capillary tube. Tumor length (l) and width (w) were measured biweekly using digital calipers and tumor volume (v) was calculated as v=½×1×w2. No randomization was used and no animals were excluded from the final data. […]"}, "IL-6, MMP-9 and ALDH1A1": {"system": "IL-6, MMP-9 and ALDH1A1", "test": "Mouse xenograft: blood IL-6 (ELISA) and tumor expression of HOTAIR targets", "format": "in vivo, mice", "conditions": "CDDP alone; after the second bi-weekly treatment"}, "A2780_CR5 [3]": {"system": "A2780_CR5", "test": "Survival assay after inhibiting HOTAIR and/or EZH2", "format": "cell-based", "conditions": "dsiRNA targeting HOTAIR combined with GSK126; platinum-resistant cells", "description": "In one exemplary method, the effect of inhibiting both HOTAIR and EZH2 on cancer cell survival was investigated. A highly platinum-resistant ovarian cancer cell line (A2780_CR5) was treated with dsiRNA targeting HOTAIR and/or a pharmacological inhibitor of EZH2 (GSK126), followed by survival assays. As an additive (P<0.05) effect of inhibiting HOTAIR-EZH2 on drug sensitivity and survival was observed (versus inhibiting either factor alone; FIG. 2A), it was next of interest to target the HOTAIR-EZH2 interaction by targeting the 89-mer minimum interacting region of HOTAIR, which has been shown. mFold (Zuker, M., Mfold web server for nucleic acid folding and hybridization prediction. Nucleic acids research, 2003. 31(13):3406-3415, incorporated herein by reference in its entirety) was used to validate the predicted secondary structure of this site, observing a highly predicted, single-stranded region in all 19 predicted structures, which complemented previous such structures (FIG. 3A)."}, "HOTAIR expression": {"system": "HOTAIR expression", "test": "Cytokine/chemokine screen, HOTAIR levels", "format": "cell-based", "conditions": "A2780 p cells, 10 ng/mL", "description": "FIG. 11A is a line graph showing changes in HOTAIR target gene expression in A2780 p cells treated with IGF, TGF-β, EGF, IL-1α, or TNF-α (10 ng/mL). Asterisks indicate P<0.05 (*) or P<0.01 (**).\nAs a positive association between HOTAIR and the master transcription factor NF-κB has been reported. […] In an exemplary method, a cytokine/chemokine screen was performed, followed by the measurement of HOTAIR levels. Of the cytokines examined, HOTAIR expression was increased (P<0.05) by TNF-α (>15-fold) and TGF-β (5-fold) compared to control (FIG. 11A). To further confirm HOTAIR induction of NF-κB, a luciferase reporter construct containing the E-selectin promoter was used (861 base pairs containing 3 canonical NF-κB-p65-binding sites as a positive control; FIG. 3B) (Ozes, O. N., et al., NF-κB activation by tumour necrosis factor requires the Akt serine-threonine kinase. Nature, 1999. 401(6748):82-85, incorporated herein by reference in its entirety) and a 1.4-fold increase (p<0.05) in luciferase activity was observed by ectopic overexpression of HOTAIR compared to vector control (FIG. 11B), which was decreased (P<0.05) by PNA3 (FIG. 11B). PNA3 treatment of breast and ovarian cancer cells decreased (P<0.05) IL-6 secretion into the media (FIG. 11C). […]"}, "A2780_CR5 [4]": {"system": "A2780_CR5", "test": "Cell invasion assay (matrigel)", "format": "cell-based", "conditions": "FIGS. 5D-5E (A2780_CR5 and SKBR-3)", "description": "In another exemplary method, ovarian cancer cells and breast cancer cells were treated with PNA3 or control PNA. Decreased (P<0.05) invasion of A2780_CR5 (2-fold, FIG. 5D), Kuramochi (0.6-fold, FIG. 9A) and SKBR-3 (2-fold, FIG. 5E) was observed, and the effect of PNA3 on cell invasion was essentially similar to knocking-down HOTAIR expression using siRNA (FIGS. 5D-5E). PNA3 or control PNA had no effect on A2780p and MDA-MB-231 cell invasion (FIGS. 9B-9C).\nCells were grown in 6 cm culture plates until 70% confluence and treated with either PNA3 or control PNA (1 μM final) for 24 hr. Next day, the plates were trypsinized, serially diluted and 50,000 cells were seeded inside a matrigel invasion chamber insert (Corning, Cat #354480) in serum-free media supplemented with 0.1% BSA. Media supplemented with 20% FBS was added to the bottom of the well and 48 hrs later, cells were fixed and dyed using Wright-Giemsa method (Hema 3 Stat pack, Cat #23-122-929) and invasion was counted under a light microscope at 20× magnification. Relative cell invasion was measured by dividing the control number of invaded cells by the PNA-treated samples."}}}
{"compound": "[NH2][Pt]([NH2])([Cl])[Cl]", "note": "[CDDP, cisplatin]", "values": [{"measurement": "spleen size compared to mock treated", "setting": "[1]; CDDP treatment", "value": "increased"}, {"measurement": "liver size", "setting": "[1]; similar trend as spleen", "value": "none were statistically significant"}, {"measurement": "H&E slides of tumors", "setting": "A2780_CR5 [2]", "value": "fewer cells"}, {"measurement": "blood IL-6 levels compared to controls", "setting": "IL-6, MMP-9 and ALDH1A1", "value": "increased"}]}
{"compound": "CC[C@H](C)n1cc(C)c2c(C(=O)NCc3c(C)cc(C)[nH]c3=O)cc(-c3ccc(N4CCNCC4)nc3)cc21", "note": "[GSK126]", "values": [{"measurement": "effect on drug sensitivity and survival of inhibiting both HOTAIR and EZH2 versus either alone", "setting": "A2780_CR5 [3]", "value": "additive"}]}
{"compound": "TGF-β", "values": [{"measurement": "HOTAIR expression increase compared to control", "setting": "HOTAIR expression", "value": 5, "unit": "fold"}]}
{"compound": "TNF-α", "values": [{"measurement": "HOTAIR expression increase compared to control", "setting": "HOTAIR expression", "value": "> 15", "unit": "fold"}]}
{"compound": "dsiRNA targeting HOTAIR: dsiRNA targeting human HOTAIR, sense SEQ ID NO: 22, antisense SEQ ID NO: 23 (sense UUCUAAAUCCGUUCCAUUCCACUGCGA; antisense GCAGUGGAAUGGAACGGAUUUAGAA; antisense strand carries a 5'-phosphate, other chemistry not given here, further chemistry not given here)", "values": [{"measurement": "cell invasion, in words", "setting": "A2780_CR5 [4]", "value": "decrease"}, {"measurement": "effect on drug sensitivity and survival of inhibiting both HOTAIR and EZH2 versus either alone", "setting": "A2780_CR5 [3]", "value": "additive"}]}
